Experimental data taken from patent US20160318987A1 (MEDIMMUNE LIMITED, priority 2013, published 2016).
Where a SMILES comes first, the peptide text is derived from it. [ ]: non-standard residue; d: D form. αMeF = C[C@](N)(Cc1ccccc1)C(=O)O; Aib = CC(C)(N)C(=O)O

Key:
[1] = target: T1, hGLP-1R (Homo sapiens, UniProt P43220); assay: cAMP functional assay, cells expressing human GLP-1 receptor (primary assay); type: cell-based; details: n = 2
T1 construct: expressed in transfected cells
Procedure: (§1) The biological activities/receptor potencies of the synthetic GLP-1 peptides described herein are suitably tested for biological activity, e.g., stimulation of one or more cellular receptor responses. Stable cell lines expressing human, mouse, rat, or dog GLP-1 receptor (GLP-1R), glucagon receptor (GCGR) or glucose-dependent insulinotropic peptide (gastric inhibitory polypeptide) receptor (GIPR) are generated in HEK293 cells or CHO cells by standard methods.
(§2) cAMP assays were performed using “assay buffer”: Assay Buffer: 0.1% BSA (Sigma #A3059) in HBSS (Sigma #H8264) with 25 mM HEPES, pH 7.4 and containing 0.5 mM IBMX (Sigma #17018).
(§3) Low protein binding 384-well plates (Greiner #781280) are used to perform eleven 1 in 5 serial dilutions of test samples which are made in assay buffer. All sample dilutions are made in duplicate.
(§4) A frozen cryo-vial of cells expressing the receptor of interest is thawed rapidly in a water-bath, transferred to pre-warmed assay buffer and spun at 240× g for 5 minutes. Cells are re-suspended in assay buffer at a batch-dependent optimized concentration (e.g. hGCGR cells at 2×10^5 cells/ml, hGLP-1R and hGIPR cells at 1×10^5 cells /ml).
(§5) From the dilution plate, a 5 μL replica is stamped onto a black shallow-well u-bottom 384-well plate (Corning #3676). To this, 5 μL cell suspension is added and the plates incubated at room temperature for 30 minutes.
(§6) cAMP levels are measured using a commercially available cAMP dynamic 2 HTRF kit (Cisbio, Cat #62AM4PEJ), following the two step protocol as per manufacturer's recommendations. In brief; anti-cAMP cryptate (donor fluorophore) and cAMP-d2 (acceptor fluorophore) are made up separately by diluting each 1/20 in conjugate & lysis buffer provided in the kit. 5 μL anti-cAMP cryptate is added to all wells of the assay plate, and 5 μL cAMP-d2 is added to all wells except non-specific binding (NSB) wells, to which conjugate and lysis buffer are added. Plates are incubated at room temperature for one hour and then read on an Envision (Perkin Elmer) using excitation wavelength of 320 nm and emission wavelengths of 620 nm & 665 nm. EC50 values of the synthetic peptides determined in cAMP assays are then determined.

[2] = target: T2, hGIP-R (Homo sapiens, UniProt P48546); assay: cAMP functional assay, cells expressing human GIP receptor (primary assay); type: cell-based; details: n = 2
T2 construct: expressed in transfected cells
T2 sequence (P48546 22-466): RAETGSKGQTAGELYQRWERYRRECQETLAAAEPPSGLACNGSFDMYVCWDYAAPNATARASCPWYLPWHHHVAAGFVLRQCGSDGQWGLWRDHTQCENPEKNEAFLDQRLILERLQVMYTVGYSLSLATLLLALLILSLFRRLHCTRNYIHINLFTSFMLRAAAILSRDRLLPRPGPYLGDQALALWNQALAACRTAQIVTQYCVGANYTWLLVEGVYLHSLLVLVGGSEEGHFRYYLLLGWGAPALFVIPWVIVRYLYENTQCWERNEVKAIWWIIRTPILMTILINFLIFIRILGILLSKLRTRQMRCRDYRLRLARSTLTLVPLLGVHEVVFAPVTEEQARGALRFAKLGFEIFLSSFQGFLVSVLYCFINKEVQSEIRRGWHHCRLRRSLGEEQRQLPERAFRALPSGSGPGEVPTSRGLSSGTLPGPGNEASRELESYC
Procedure: as §1, §2, §3, §4, §5, §6

T1 sequence (P43220 24-463): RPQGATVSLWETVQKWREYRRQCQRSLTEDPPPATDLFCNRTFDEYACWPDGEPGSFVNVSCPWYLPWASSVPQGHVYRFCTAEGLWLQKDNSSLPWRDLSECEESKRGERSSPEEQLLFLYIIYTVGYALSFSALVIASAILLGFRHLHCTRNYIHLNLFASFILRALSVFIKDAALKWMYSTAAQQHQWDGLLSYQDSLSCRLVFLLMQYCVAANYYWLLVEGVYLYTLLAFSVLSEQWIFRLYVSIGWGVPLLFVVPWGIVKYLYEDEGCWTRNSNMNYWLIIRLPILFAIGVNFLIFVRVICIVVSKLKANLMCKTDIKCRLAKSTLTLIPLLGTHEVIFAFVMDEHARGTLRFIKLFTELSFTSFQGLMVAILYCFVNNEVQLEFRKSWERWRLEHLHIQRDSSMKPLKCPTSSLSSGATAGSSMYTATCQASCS

Compound	EC50 [1]	EC50 [2]
CC[C@H](C)[C@H](NC(=O)[C@](C)(Cc1ccccc1)NC(=O)[C@H](CCC(=O)O)NC(=O)[C@H](CCCCN)NC(=O)[C@H](C)NC(=O)[C@H](C)NC(=O)[C@H](CCC(N)=O)NC(=O)CNC(=O)[C@H](CCC(=O)O)NC(=O)[C@H](CC(C)C)NC(=O)[C@](C)(Cc1ccccc1)NC(=O)[C@H](CO)NC(=O)[C@H](CO)NC(=O)[C@@H](NC(=O)[C@H](CC(=O)O)NC(=O)[C@H](CO)NC(=O)[C@@H](NC(=O)[C@H](Cc1ccccc1)NC(=O)[C@@H](NC(=O)CNC(=O)[C@H](CCC(=O)O)NC(=O)C(C)(C)NC(=O)[C@@H](N)Cc1c[nH]cn1)[C@@H](C)O)[C@@H](C)O)C(C)C)C(=O)N[C@@H](C)C(=O)N[C@@](C)(Cc1ccccc1)C(=O)N[C@@H](CC(C)C)C(=O)N[C@H](C(=O)N[C@@H](CCCCN)C(=O)NCC(=O)N[C@@H](CCCNC(=N)N)C(N)=O)C(C)C [SEQ ID NO: 32, H-(Aib)^2-EGT^5-FTSDV^10 SS-(α-MeF)^13-LE^15 GQAAK^20 E-(α-MeF)^22-IA-(α-MeF)^25 LVKGR^30] (H-H[Aib]EGTFTSDVSS[αMeF]LEGQAAKE[αMeF]IA[αMeF]LVKGR-NH2)	0.102 nM	102 nM
CC[C@H](C)[C@H](NC(=O)C(C)(C)NC(=O)[C@H](CCC(=O)O)NC(=O)[C@H](CCCCN)NC(=O)[C@H](C)NC(=O)[C@H](C)NC(=O)[C@H](CCC(N)=O)NC(=O)CNC(=O)[C@H](CCC(=O)O)NC(=O)[C@H](CC(C)C)NC(=O)C(C)(C)NC(=O)[C@H](CO)NC(=O)[C@H](CO)NC(=O)[C@@H](NC(=O)[C@H](CC(=O)O)NC(=O)[C@H](CO)NC(=O)[C@@H](NC(=O)C(C)(C)NC(=O)[C@@H](NC(=O)CNC(=O)[C@H](CCC(=O)O)NC(=O)C(C)(C)NC(=O)[C@@H](N)Cc1c[nH]cn1)[C@@H](C)O)[C@@H](C)O)C(C)C)C(=O)N[C@@H](C)C(=O)NC(C)(C)C(=O)N[C@@H](CC(C)C)C(=O)N[C@H](C(=O)N[C@@H](CCCCN)C(=O)NCC(=O)N[C@@H](CCCNC(=N)N)C(N)=O)C(C)C [SEQ ID NO: 16, H-(Aib)^2-EGT^5-(Aib)^6-TSDV^10 SS-(Aib)^13-LE^15 GQAAK^20 E-(Aib)^22-IA-(Aib)^25 LVKGR^30] (H-H[Aib]EGT[Aib]TSDVSS[Aib]LEGQAAKE[Aib]IA[Aib]LVKGR-NH2)	102 nM	102 nM
CC[C@H](C)[C@H](NC(=O)[C@](C)(Cc1ccccc1)NC(=O)[C@H](CCC(=O)O)NC(=O)[C@H](CCCCN)NC(=O)[C@H](C)NC(=O)[C@H](C)NC(=O)[C@H](CCC(N)=O)NC(=O)CNC(=O)[C@H](CCC(=O)O)NC(=O)[C@H](CC(C)C)NC(=O)[C@](C)(Cc1ccccc1)NC(=O)[C@H](CO)NC(=O)[C@H](CO)NC(=O)[C@@H](NC(=O)[C@H](CC(=O)O)NC(=O)[C@H](CO)NC(=O)[C@@H](NC(=O)[C@](C)(Cc1ccccc1)NC(=O)[C@H](CO)NC(=O)CNC(=O)[C@H](CCC(=O)O)NC(=O)C(C)(C)NC(=O)[C@@H](N)Cc1c[nH]cn1)[C@@H](C)O)C(C)C)C(=O)N[C@@H](C)C(=O)N[C@@](C)(Cc1ccccc1)C(=O)N[C@@H](CC(C)C)C(=O)NC(C)(C)C(=O)N[C@@H](CCCCN)C(=O)NC(C)(C)C(=O)N[C@@H](CCCNC(=N)N)C(N)=O [SEQ ID NO: 43, H-(Aib)^2-EG-(S)^5-(α-MeF)^6-TSDV^10 SS-(α-MeF)^13-LE^15 GQAAK^20 E-(α-MeF)^22-IA-(α-MeF)^25 L-(Aib)^27-K-(Aib)^29-R^30] (H-H[Aib]EGS[αMeF]TSDVSS[αMeF]LEGQAAKE[αMeF]IA[αMeF]L[Aib]K[Aib]R-NH2)	0.0707 nM	102 nM
CC[C@H](C)[C@H](NC(=O)[C@H](Cc1ccccc1)NC(=O)[C@H](CCC(=O)O)NC(=O)[C@H](CCCCN)NC(=O)[C@H](C)NC(=O)[C@H](C)NC(=O)[C@H](CCC(N)=O)NC(=O)CNC(=O)[C@H](CCC(=O)O)NC(=O)[C@H](CC(C)C)NC(=O)[C@](C)(Cc1ccccc1)NC(=O)[C@H](CO)NC(=O)[C@H](CO)NC(=O)[C@@H](NC(=O)[C@H](CC(=O)O)NC(=O)[C@H](CO)NC(=O)[C@@H](NC(=O)[C@](C)(Cc1ccccc1)NC(=O)[C@@H](NC(=O)CNC(=O)[C@H](CCC(=O)O)NC(=O)C(C)(C)NC(=O)[C@@H](N)Cc1c[nH]cn1)[C@@H](C)O)[C@@H](C)O)C(C)C)C(=O)N[C@@H](C)C(=O)N[C@@](C)(Cc1ccccc1)C(=O)N[C@@H](CC(C)C)C(=O)N[C@H](C(=O)N[C@@H](CCCCN)C(=O)NCC(=O)N[C@@H](CCCNC(=N)N)C(N)=O)C(C)C [SEQ ID NO: 30, H-(Aib)^2-EGT^5-(α-MeF)^6-TSDV^10 SS-(α-MeF)^13-LE^15 GQAAK^20 EF^22-IA-(α-MeF)^25 LVKGR^30] (H-H[Aib]EGT[αMeF]TSDVSS[αMeF]LEGQAAKEFIA[αMeF]LVKGR-NH2)	0.0117 nM	98.9 nM
CC[C@H](C)[C@H](NC(=O)[C@](C)(Cc1ccccc1)NC(=O)[C@H](CCC(=O)O)NC(=O)[C@H](CCCCN)NC(=O)[C@H](C)NC(=O)[C@H](C)NC(=O)[C@H](CCC(N)=O)NC(=O)CNC(=O)[C@H](CCC(=O)O)NC(=O)[C@H](CC(C)C)NC(=O)[C@H](Cc1ccc(O)cc1)NC(=O)[C@H](CO)NC(=O)[C@H](CO)NC(=O)[C@@H](NC(=O)[C@H](CC(=O)O)NC(=O)[C@H](CO)NC(=O)[C@@H](NC(=O)[C@](C)(Cc1ccccc1)NC(=O)[C@H](CO)NC(=O)CNC(=O)[C@H](CCC(=O)O)NC(=O)C(C)(C)NC(=O)[C@@H](N)Cc1c[nH]cn1)[C@@H](C)O)C(C)C)C(=O)N[C@@H](C)C(=O)N[C@@](C)(Cc1ccccc1)C(=O)N[C@@H](CC(C)C)C(=O)N[C@H](C(=O)N[C@@H](CCCCN)C(=O)NCC(=O)N[C@@H](CCCNC(=N)N)C(N)=O)C(C)C [SEQ ID NO: 36, H-(Aib)^2-EG-(S)^5-(α-MeF)^6-TSDV^10 SSYLE^15 GQAAK^20 E-(α-MeF)^22-IA-(α-MeF)^25 LVKGR^30] (H-H[Aib]EGS[αMeF]TSDVSSYLEGQAAKE[αMeF]IA[αMeF]LVKGR-NH2)	0.0267 nM	102 nM
CC[C@H](C)[C@H](NC(=O)[C@](C)(Cc1ccccc1)NC(=O)[C@H](CCC(=O)O)NC(=O)[C@H](CCCCN)NC(=O)[C@H](C)NC(=O)[C@H](C)NC(=O)[C@H](CCC(N)=O)NC(=O)CNC(=O)[C@H](CCC(=O)O)NC(=O)[C@H](CC(C)C)NC(=O)[C@](C)(Cc1ccccc1)NC(=O)[C@H](CO)NC(=O)[C@H](CO)NC(=O)[C@@H](NC(=O)[C@H](CC(=O)O)NC(=O)[C@H](CO)NC(=O)[C@@H](NC(=O)[C@](C)(Cc1ccccc1)NC(=O)[C@H](CO)NC(=O)CNC(=O)[C@H](CCC(=O)O)NC(=O)C(C)(C)NC(=O)[C@@H](N)Cc1c[nH]cn1)[C@@H](C)O)C(C)C)C(=O)N[C@@H](C)C(=O)N[C@@](C)(Cc1ccccc1)C(=O)N[C@@H](CC(C)C)C(=O)N[C@H](C(=O)N[C@@H](CCCCN)C(=O)NCC(=O)NCC(N)=O)C(C)C [SEQ ID NO: 39, H-(Aib)^2-EG-(S)^5-(α-MeF)^6-TSDV^10 SS-(α-MeF)^13-LE^15 GQAAK^20 E-(α-MeF)^22-IA-(α-MeF)^25 LVKG-(G)^30] (H-H[Aib]EGS[αMeF]TSDVSS[αMeF]LEGQAAKE[αMeF]IA[αMeF]LVKGG-NH2)	0.0322 nM	102 nM
